Our source for the Papp values is patent publication US9409952B2, “Peptide-compound cyclization method” (Chugai Seiyaku Kabushiki Kaisha, priority 2011, dated 2016).

Molecules are shown by their SMILES. Starred links: 1 amine or outer side, 2 acyl side, 3 side chain; linkers in the order of their positions; H or OH if unused. Positions of bridges follow the written chain, without caps; N, C: chain ends. Non-standard residues stand in square brackets, D forms with d. Residues, ends and D or L forms follow the SMILES beside them. *: point of attachment. NMeF = CN[C@@H](Cc1ccccc1)C(=O)O; NMeGABA = CN(CCCC(=O)[*:2])[*:1]; NMeβAla = CN(CCC(=O)[*:2])[*:1]; NMeL = CN[C@@H](CC(C)C)C(=O)O; NMeV = CN[C@H](C(=O)O)C(C)C; NMeA = CN[C@@H](C)C(=O)O; Piperidide = C1CCN(*)CC1; dNMeA = CN[C@H](C)C(=O)O; Sar = CNCC(=O)O; tBu = CC(C)(C)*

The first series in a line: PAMPA (parallel artificial membrane permeability assay). Format: in vitro ADME. Particulars: PAMPA, pH 6.5. How it is done:
4 μL of a phospholipid-organic solvent solution composed of 10% (w/v) of egg lecithin, 0.5% (w/v) of cholesterol and dodecane (all purchased from Fluka) was added to a Millipore 96-well membrane filter (hydrophobic PVDF (polyvinylidene difluoride), pore size 0.45 microm) (purchased from Millipore Japan) to make an artificial phospholipid membrane.
A DMSO solution containing the compound at a concentration of 10 mM was added in a percentage of 0.5% (v/v) to a 50 mM MOPSO buffer, pH 6.5, containing 5.0% (w/v) of glycocholic acid, and 330 μL of the mixture was added to a 96-well plate made of Teflon (donor plate). The above artificial phospholipid membrane plate was attached onto the donor plate, and 280 μL of a solution obtained by adding DMSO in a percentage of 0.5% (v/v) to a 50 mM MOPSO buffer, pH 6.5, containing 5.0% (w/w) of glycocholic acid was added onto the artificial phospholipid membrane (acceptor plate). These plates were allowed to stand at 37° C. for 18 hours, after which the concentrations of the compound in the solutions in the donor plate and the acceptor plate were measured by LC/MS or LC/UV, and the membrane permeation rate of the compound (Pe) was calculated by the following formulas (1) and (2), where t is the testing time, A is the membrane filter area, VD is the amount of the donor solution, VA is the amount of the acceptor solution, CD,t is the concentration of the compound in the donor solution at the time t, and CA,t is the concentration of the compound in the acceptor solution at the time t.
(PAMPA measures passive passage across an artificial lipid membrane.)
`CC[C@H](C)[C@@H]1NC(=O)[C@H](Cc2ccccc2)N(C)C(=O)[C@H]([C@@H](C)O)NC(=O)[C@H](C)NC(=O)C[C@@H](C(=O)N(C)[C@@H](Cc2ccccc2)C(=O)N(C)[C@@H](Cc2ccccc2)C(=O)N[C@@H](C)C(=O)N2CCCCC2)NC(=O)[C@H](CC(C)C)N(C)C(=O)[C@H](CC(C)C)N(C)C(=O)[C@H](Cc2ccccc2)N(C)C(=O)[C@H](CC(C)C)N(C)C(=O)[C@H](C)N(C)C1=O` [DP-286] (AT[NMeF]I[NMeA][NMeL][NMeF][NMeL][NMeL]D[NMeF][NMeF]A-Piperidide; lactam N-10) returned a Papp at 18 hours, 50 µM of 0.24 ×10⁻⁶ cm/s.
The same measure, in the same setting: then `CC(C)C[C@H]1C(=O)N(C)[C@@H](C(C)C)C(=O)N[C@@H](Cc2ccccc2)C(=O)N[C@H](C(=O)N(C)[C@@H](Cc2ccccc2)C(=O)N(C)[C@@H](Cc2ccccc2)C(=O)N[C@@H](C)C(=O)N2CCCCC2)CC(=O)N[C@@H](C)C(=O)N[C@@H](C(C)C)C(=O)N(C)[C@@H](CC(C)C)C(=O)N[C@@H]([C@@H](C)O)C(=O)N(C)[C@@H](Cc2ccccc2)C(=O)NCC(=O)N1C` [DP-287] (AV[NMeL]T[NMeF]G[NMeL][NMeV]FD[NMeF][NMeF]A-Piperidide; lactam N-10), with 1.4 ×10⁻⁶ cm/s.
On the same count and under the same terms, the same measure for `CC[C@H](C)[C@@H]1NC(=O)[C@H](Cc2ccccc2)N(C)C(=O)[C@H]([C@@H](C)O)NC(=O)[C@@H](C)NC(=O)C[C@@H](C(=O)N(C)[C@@H](Cc2ccccc2)C(=O)N(C)[C@@H](Cc2ccccc2)C(=O)N[C@@H](C)C(=O)N2CCCCC2)NC(=O)[C@H](CC(C)C)N(C)C(=O)[C@H](CC(C)C)N(C)C(=O)[C@H](Cc2ccccc2)N(C)C(=O)[C@H](CC(C)C)N(C)C(=O)[C@H](C)N(C)C1=O` [DP-289] ([dA]T[NMeF]I[NMeA][NMeL][NMeF][NMeL][NMeL]D[NMeF][NMeF]A-Piperidide; lactam N-10): 0.14 ×10⁻⁶ cm/s; for `CC[C@H](C)[C@@H]1NC(=O)[C@H](CC(C)C)N(C)C(=O)[C@H](C)N(C)C(=O)[C@H]([C@@H](C)O)NC(=O)[C@H](CC(C)C)N(C)C(=O)[C@H](Cc2ccccc2)N(C)C(=O)[C@@H](C(C)C)NC(=O)C[C@@H](C(=O)N(C)[C@@H](Cc2ccccc2)C(=O)N[C@@H](C)C(=O)N2CCCCC2)NC(=O)[C@H](C(C)C)N(C)C1=O` [DP-308] ([dV][NMeF][NMeL]T[NMeA][NMeL]I[NMeV]D[NMeF]A-Piperidide; lactam N-9): 27 ×10⁻⁶ cm/s; for `CC(C)C[C@H]1C(=O)N(C)[C@@H](Cc2ccccc2)C(=O)NCC(=O)N(C)[C@@H](Cc2ccccc2)C(=O)N(C)[C@@H](C)C(=O)N[C@@H]([C@@H](C)O)C(=O)N[C@H](C(=O)N(C)[C@@H](Cc2ccccc2)C(=O)N(C)[C@@H](Cc2ccccc2)C(=O)N[C@@H](C)C(=O)N2CCCCC2)CC(=O)N(C)CCC(=O)N[C@@H](C(C)C)C(=O)N1C` [DP-312] ([NMeβAla]V[NMeL][NMeF]G[NMeF][NMeA]TD[NMeF][NMeF]A-Piperidide; lactam N-9): 47 ×10⁻⁶ cm/s.

Still in this series, the particulars now being: PAMPA; membrane permeation rate (Pe); 50 mM MOPSO buffer pH 6.5 with 5.0% glycocholic acid, 37° C., 18 hours; read-out: iPAMPA Pe.
Regarding `CC(C)C[C@H]1C(=O)N(C)[C@@H](C)C(=O)N[C@@H](COC(C)(C)C)C(=O)N(C)[C@@H](C(C)C)C(=O)N[C@H](C(=O)N2CCCCC2)CC(=O)N(C)[C@@H](C)C(=O)N(C)[C@@H](Cc2ccccc2)C(=O)N[C@@H](C)C(=O)N(C)[C@@H](C)C(=O)N[C@@H](Cc2ccccc2)C(=O)N[C@@H]([C@@H](C)O)C(=O)N(C)[C@@H](C)C(=O)N1C` [DP-317] ([NMeA][NMeF]A[NMeA]FT[NMeA][NMeL][NMeA]S(tBu)[NMeV]D-Piperidide; lactam N-12), the Papp at 18 hours, 50 µM was 20 ×10⁻⁶ cm/s.
For the compound `CC(C)C[C@@H]1NC(=O)[C@H](Cc2ccccc2)N(C)C(=O)CCN(C)C(=O)C[C@@H](C(=O)N2CCCCC2)NC(=O)[C@H](Cc2ccccc2)N(C)C(=O)[C@H](C)N(C)C(=O)[C@H]([C@@H](C)O)NC(=O)CN(C)C(=O)[C@H](C(C)C)N(C)C(=O)[C@H](C)NC(=O)[C@H](C(C)C)N(C)C(=O)[C@H](CC(C)C)N(C)C1=O` [DP-318] ([NMeβAla][NMeF]L[NMeL][NMeV]A[NMeV][Sar]T[NMeA][NMeF]D-Piperidide; lactam N-12), the Papp at 18 hours, 50 µM was found to be 26 ×10⁻⁶ cm/s.
As to `CC[C@H](C)[C@@H]1NC(=O)[C@H](Cc2ccccc2)N(C)C(=O)[C@H](CC(C)C)N(C)C(=O)[C@H](Cc2ccccc2)NC(=O)[C@H]([C@@H](C)O)NC(=O)[C@H](CC(C)C)N(C)C(=O)[C@H](CC(C)C)NC(=O)CCN(C)C(=O)C[C@@H](C(=O)N2CCCCC2)NC(=O)[C@H](CC(C)C)N(C)C1=O` [DP-336] ([NMeβAla]L[NMeL]TF[NMeL][NMeF]I[NMeL]D-Piperidide; lactam N-10), the Papp at 18 hours, 50 µM came to 35 ×10⁻⁶ cm/s.
Turning to `CC(C)C[C@@H]1NC(=O)[C@@H](C)N(C)C(=O)C[C@@H](C(=O)N(C)[C@@H](Cc2ccccc2)C(=O)N[C@@H](C)C(=O)N2CCCCC2)NC(=O)[C@H](Cc2ccccc2)N(C)C(=O)[C@H](CC(C)C)N(C)C(=O)[C@H](Cc2ccccc2)NC(=O)[C@H]([C@@H](C)O)NC(=O)[C@H](CC(C)C)N(C)C(=O)[C@H](CC(C)C)N(C)C1=O` [DP-359] ([dNMeA]L[NMeL][NMeL]TF[NMeL][NMeF]D[NMeF]A-Piperidide; lactam N-9), the Papp at 18 hours, 50 µM turned out to be 43 ×10⁻⁶ cm/s.
Still for that read-out and setting: the same measure for `CC(C)C[C@H]1C(=O)N(C)[C@@H](Cc2ccccc2)C(=O)N[C@@H]([C@@H](C)O)C(=O)N[C@@H](C)C(=O)N(C)[C@@H](C)C(=O)N[C@H](C(=O)N(C)[C@@H](Cc2ccccc2)C(=O)N[C@@H](C)C(=O)N2CCCCC2)CC(=O)N(C)CCC(=O)N(C)[C@@H](Cc2ccccc2)C(=O)N(C)[C@@H](C(C)C)C(=O)N(C)[C@@H](C)C(=O)N[C@@H](C)C(=O)N1C` [DP-360] ([NMeβAla][NMeF][NMeV][NMeA]A[NMeL][NMeF]TA[NMeA]D[NMeF]A-Piperidide; lactam N-11): 7.3 ×10⁻⁶ cm/s.
On the same count and under the same terms, the same measure for `CC[C@H](C)[C@@H]1NC(=O)[C@H](CC(C)C)N(C)C(=O)[C@H](C)N(C)C(=O)[C@H](C)N(C)C(=O)CCN(C)C(=O)C[C@@H](C(=O)N(C)[C@@H](Cc2ccccc2)C(=O)N[C@@H](C)C(=O)N2CCCCC2)NC(=O)[C@H](Cc2ccccc2)N(C)C(=O)[C@H](C)N(C)C(=O)[C@H]([C@@H](C)O)NC(=O)[C@H](Cc2ccccc2)N(C)C(=O)[C@H](C)N(C)C1=O` [DP-362] ([NMeβAla][NMeA][NMeA][NMeL]I[NMeA][NMeF]T[NMeA][NMeF]D[NMeF]A-Piperidide; lactam N-11): 27 ×10⁻⁶ cm/s.
On to `CC[C@H](C)[C@@H]1NC(=O)[C@H](C)N(C)C(=O)[C@H](CC(C)C)N(C)C(=O)CCCN(C)C(=O)C[C@@H](C(=O)N(C)[C@@H](Cc2ccccc2)C(=O)N[C@@H](C)C(=O)N2CCCCC2)NC(=O)[C@H](CC(C)C)N(C)C(=O)[C@H](C)N(C)C(=O)[C@H]([C@@H](C)O)NC(=O)[C@H](Cc2ccccc2)N(C)C(=O)[C@H](Cc2ccccc2)N(C)C(=O)[C@H](CC(C)C)N(C)C1=O` [DP-366] ([NMeGABA][NMeL][NMeA]I[NMeL][NMeF][NMeF]T[NMeA][NMeL]D[NMeF]A-Piperidide; lactam N-11), for which the Papp at 18 hours, 50 µM was 14 ×10⁻⁶ cm/s.
As for `CC(C)C[C@@H]1NC(=O)[C@H](CC(C)C)N(C)C(=O)CCN(C)C(=O)C[C@@H](C(=O)N(C)[C@@H](Cc2ccccc2)C(=O)N[C@@H](C)C(=O)N2CCCCC2)NC(=O)[C@H](CC(C)C)N(C)C(=O)[C@H](Cc2ccccc2)NC(=O)[C@H](Cc2ccccc2)N(C)C(=O)[C@H](C)NC(=O)[C@H]([C@@H](C)O)NC(=O)[C@H](CC(C)C)N(C)C1=O` [DP-369] ([NMeβAla][NMeL]L[NMeL]TA[NMeF]F[NMeL]D[NMeF]A-Piperidide; lactam N-10), the Papp at 18 hours, 50 µM was found to be 26 ×10⁻⁶ cm/s.
Regarding `CC[C@H](C)[C@@H]1NC(=O)[C@H](CC(C)C)N(C)C(=O)[C@H](Cc2ccccc2)N(C)C(=O)[C@H]([C@@H](C)O)NC(=O)[C@H](C)N(C)C(=O)CCCN(C)C(=O)C[C@@H](C(=O)N(C)[C@@H](Cc2ccccc2)C(=O)N[C@@H](C)C(=O)N2CCCCC2)NC(=O)[C@H](CC(C)C)N(C)C(=O)[C@H](Cc2ccccc2)N(C)C(=O)[C@H](CC(C)C)N(C)C1=O` [DP-373] ([NMeGABA][NMeA]T[NMeF][NMeL]I[NMeL][NMeF][NMeL]D[NMeF]A-Piperidide; lactam N-10), the Papp at 18 hours, 50 µM is 9.2 ×10⁻⁶ cm/s.
For the compound `CC[C@H](C)[C@@H]1NC(=O)[C@H](C)N(C)C(=O)[C@H]([C@@H](C)O)NC(=O)[C@H](CC(C)C)N(C)C(=O)[C@H](Cc2ccccc2)NC(=O)[C@H](C(C)C)N(C)C(=O)[C@H](CC(C)C)N(C)C(=O)[C@H](C)N(C)C(=O)C[C@@H](C(=O)N(C)[C@@H](Cc2ccccc2)C(=O)N[C@@H](C)C(=O)N2CCCCC2)NC(=O)[C@H](CC(C)C)N(C)C1=O` [DP-376] ([NMeA][NMeL][NMeV]F[NMeL]T[NMeA]I[NMeL]D[NMeF]A-Piperidide; lactam N-10), the Papp at 18 hours, 50 µM was 29 ×10⁻⁶ cm/s.
For the compound `CC(C)C[C@@H]1NC(=O)[C@H](CC(C)C)N(C)C(=O)[C@H](C)N(C)C(=O)C[C@@H](C(=O)N(C)[C@@H](Cc2ccccc2)C(=O)N[C@@H](C)C(=O)N2CCCCC2)NC(=O)[C@H]([C@@H](C)O)NC(=O)[C@H](CC(C)C)N(C)C(=O)[C@H](Cc2ccccc2)NC(=O)[C@H](Cc2ccccc2)N(C)C(=O)[C@H](CC(C)C)N(C)C1=O` [DP-387] ([NMeA][NMeL]L[NMeL][NMeF]F[NMeL]TD[NMeF]A-Piperidide; lactam N-9), the Papp at 18 hours, 50 µM stood at 2.8 ×10⁻⁶ cm/s.
